Source: BindingDB's records for doi:10.1016/j.bmcl.2009.06.027 (Grupo Uriach, 2009)

assay: Inhibition of CXCL8-induced chemotaxis in human polymorphonuclear leukocyte pretreated for 15 mins measured after 4 hrs by cell migration assay

Row | IC50 | Compound
1 | 90 nM | Cc1ccc(C(=O)c2ccc(CC(=O)O)n2C)cc1 [2-(1-methyl-5-(4-methylbenzoyl)-1H-pyrrol-2-yl)acetic acid]
2 | > 1000 nM | O=C(O)Cc1ccccc1Cc1c(Cl)cccc1Cl [2-(2-(2,6-dichlorobenzyl)phenyl)acetic acid]
3 | > 1000 nM | O=C(O)Cc1ccccc1Nc1c(F)cccc1F [2-(2-(2,6-difluorophenylamino)phenyl)acetic acid]
4 | 13 nM | O=C(O)Cc1ccccc1Oc1ccccc1F [2-(2-(2-fluorophenoxy)phenyl)acetic acid]
5 | 9 nM | O=C(O)Cc1ccccc1Nc1ccccc1F [2-(2-(2-fluorophenylamino)phenyl)acetic acid]
6 | > 1000 nM | Cc1ccccc1Nc1ccccc1CC(=O)O [2-(2-(o-tolylamino)phenyl)acetic acid]
7 | > 1000 nM | O=C(O)Cc1cccc(C(=O)c2ccccc2)c1 [2-(3-benzoylphenyl)acetic acid]
8 | 50 nM | CS(=O)(=O)NC(=O)Cc1ccccc1Oc1ccccc1F [2-[2-(2-Fluorophenoxy)phenyl]-N-(methylsulfonyl)acetamide]
9 | 25 nM | CC(C(=O)NCCCN(C)C)c1ccccc1Nc1c(Cl)cccc1Cl (stereo unspecified) [2-{2-[(2,6-Dichlorophenyl)amino]phenyl}-N,N'-[3,3-(dimethylamino)propyl]propanamide]
10 | 600 nM | Cc1cccc(C)c1NC(=O)C(C)c1ccccc1Nc1c(Cl)cccc1Cl (stereo unspecified) [2-{2-[(2,6-Dichlorophenyl)amino]phenyl}-N-(2,6-dimethylphenyl)propanamide]
11 | 20 nM | CC(C(=O)NCCO)c1ccccc1Nc1c(Cl)cccc1Cl (stereo unspecified) [2-{2-[(2,6-Dichlorophenyl)amino]phenyl}-N-(2-hydroxyethyl)propanamide]
12 | 13 nM | CC(C(=O)NS(C)(=O)=O)c1ccccc1Nc1c(Cl)cccc1Cl (stereo unspecified) [2-{2-[(2,6-Dichlorophenyl)amino]phenyl}-N-(methylsulfonyl)propanamide]
13 | 12 nM | CC(C(N)=O)c1ccccc1Nc1c(Cl)cccc1Cl (stereo unspecified) [2-{2-[(2,6-Dichlorophenyl)amino]phenyl}propanamide]
14 | 10 nM | CC(C(=O)O)c1ccccc1Nc1c(Cl)cccc1Cl (stereo unspecified) [2-{2-[(2,6-Dichlorophenyl)amino]phenyl}propanoic acid]
15 | > 1000 nM | CC(C(=O)NCCC[N+](C)(C)C)c1ccccc1Nc1c(Cl)cccc1Cl (stereo unspecified) [3-(2-(2-(2,6-dichlorophenylamino)phenyl)propanamido)-N,N,N-trimethylpropan-1-aminium iodide]
16 | > 1000 nM | O=C(O)Cc1ccccc1Oc1ccccc1 [(2-Phenoxy-phenyl)-acetic acid]
17 | > 1000 nM | O=C(O)Cc1ccccc1Nc1ccccc1 [(2-Phenylamino-phenyl)-acetic acid]
18 | > 1000 nM | CC(C)Cc1ccc(CC(=O)O)cc1 [Ibufenac]
19 | 650 nM | CC(C(=O)NC(C)(C)C)c1ccccc1Nc1c(Cl)cccc1Cl (stereo unspecified) [N-(tert-Butyl)-2-{2-[(2,6-dichlorophenyl)amino]phenyl}propanamide]
20 | 25 nM | O=C(O)Cc1ccccc1Nc1cc(Cl)ccc1Cl [[2-(2,5-Dichloro-phenylamino)-phenyl]-acetic acid]
21 | 500 nM | O=C(O)Cc1ccccc1Oc1ccccc1Cl [[2-(2-Chloro-phenoxy)-phenyl]-acetic acid]
22 | 400 nM | O=C(O)Cc1ccccc1Nc1ccccc1Cl [[2-(2-Chloro-phenylamino)-phenyl]-acetic acid]
23 | 50 nM | COc1ccc2c(c1)c(CC(=O)O)c(C)n2C(=O)c1ccc(Cl)cc1 [indometacin]
24 | 8 nM | O=C(O)Cc1ccccc1Nc1c(Cl)cccc1Cl [{2-[(2,6-dichlorophenyl)amino]phenyl}acetic acid]

Row | Compound | IC50
25 | Cc1ccc(Cl)c(Nc2ccccc2CC(=O)O)c1Cl [2-(2-(2,6-dichloro-3-methylphenylamino)phenyl)acetic acid] | 500 nM

assay: Inhibition of wild type CXCR1 transfected in mouse L1.2 cells assessed as inhibition of CXCL8-induced cell migration pretreated for 15 mins measured after 4 hrs

Row | IC50 | Compound
26 | 12 nM | O=C(O)Cc1ccccc1Nc1c(Cl)cccc1Cl [{2-[(2,6-dichlorophenyl)amino]phenyl}acetic acid]
